The numbers were not newly measured in paper PMC9751290, “Design, synthesis, in vitro, in silico, and SAR studies of flavone analogs towards anti-dengue activity” (Scientific Reports, 2022), which cites them from elsewhere.

This data set deals with dengue and Zika virus. To be noted: cited from earlier work.

Consider `CCCCCCCCCCCCOc1c(Br)c(O)c2c(=O)cc(-c3ccccc3)oc2c1Br` [IV], for which the EC50 is 4.17 µM.

One may read the EC50 as the concentration that produces a half-maximal response.
